Where no end group is shown, it is not given here.
Legend:
[1] = tested on: tumor in the left side of the neck (metastatic small cell carcinoma); settings: in vivo
Procedure: During and after each administration of the last eight doses, a tumor in the left side of the neck was monitored for radioligand uptake with an ion chamber survey meter, a Victoreen 450P ion chamber, which measures external gamma dose rates. Administration of the initial seven doses were by bolus inject ion. The last three doses were delivered by infusion with various activities of radioligand.
The external gamma dose rates from radioligand accumulation in the neck tumor area were measured immediately and 24 hr after injection. After the treatment of the fifth month, the patient was monitored for radioligand uptake for an extended period—at 2, 4, and 8 days after the injection.
Four months after the final bolus dose, the first dose by infusion (“Infusion 1”) was administered. A dose equivalent to the previous bolus dose (175.9 mCi) was given, but the radioligand was administered by infusion over 72 hr at a constant rate of 2.5 mCi/hr.
One month later, in “Infusion 2,” the total dose was increased to 389.2 mCi. By infusion, 189.8 mCi of the radioligand was given over the first 24 hr, 108.6 mCi over the second 24 hr, and 90.8 mCi over the third 24 hr. For each 24 hr period, the infusion rate was kept constant.
One month later, a third dose was administered by infusion (“Infusion 3”). A dose of 301 mCi was infused the first 24 hr period. […]

[2] = tested on: neuroendocrine cancers expressing the somatostatin receptor; assay: Pilot clinical trial of monthly 180 mCi doses; format: in vivo, human; settings: ten patients
Procedure: For six months, pilot clinical trials were conducted in ten human patients with progressive metastatic indolent and symptomatic neuroendocrine cancers expressing the somatostatin receptor. […] The first monthly dose was a bolus injection of 180 mCi. The second monthly dose was infusion of 180 mCi over 72 hr. The third monthly dose was infusion of 180 mCi over 24 hr. Thereafter, all monthly doses were infusion of 180 mCi over 24 hr. Clinical benefits (as evidenced by reduced pain, weight gain, reduced malaise, etc.) occurred in 6 of the 10 neuroendocrine (carcinoid/islet cell) patients. Partial radiographic responses (greater than 50% reduction in the product of perpendicular tumor diameters) occurred in 2 patients, and significant tumor necrosis developed in 7 of the 10 neuroendocrine patients. Treatment-related toxicity included 2 Grade III platelet, 1 Grade II WBC, 1 Grade I WBC and 2 Grade I Hb on the NCI (National Cancer Institute) grading scale.

[3] = cited from earlier work
[4] = tested on: human placental-derived vascular endothelial cells; assay: Binding and internalization in angiogenic vascular endothelial cells; format: cell-based; settings: 500,000 cells, 500,000 cpm, acid wash, FIG. 17
Text: Human placental-derived vascular endothelial cells were used to assay for cell binding of the somatostatin analog, ^125I-JIC-2D. The radioligand, a somatostatin analog, ^125I-JIC-2D, was made by solid phase peptide synthesis as described in U.S. Pat. No. 5,597,894. This peptide has an amino acid sequence of the following: D-Lys-D-Tyr-D-Lys-D-Tyr-D-Lys-C[Cys-Phe-D-Trp-Lys-Thr-Cys]-Thr-NH2. The cells were obtained by growing discs of human placental veins in fibrinclots for 14 days. […] These discs and their angiogenic sprouts are harvested mechanically and dissociated by vortexing. The vein discs are then discarded and the endothelial cells pooled. Cells were harvested, counted with a hemocytometer, and resuspended in binding buffer (Minimum Essential Medium (MEM), 10 mM Hepes, 0.01% BSA). A standard assay used 500,000 cells in 1 ml of binding buffer. […] At the termination of the experiment, the incubation medium was removed, the cells were rinsed twice with Hanks balanced salt solution (HBSS), and the radioactivity in the cells determined using a gamma counter. This level of radioactivity represents total binding, which includes both membrane-bound and internalized fractions. Specific binding was determined by calculating the difference in the levels of measured radioactivity without the unlabeled competitor minus the radioactivity with the unlabeled competitor. […]

[5] = tested on: human placental vein discs (angiogenic vascular tissue); assay: Human Placental Vein Angiogenesis Model; format: cell-based; settings: 50 μCi/mL (or equivalent amounts)
Text: Watson et al., “Up-Regulation of Somatostatin Receptor Subtype 2. (SST-2) mRNA Occurs During the Transformation of Human Endothelium to the Angiogenic Phenotype,” Paper Presented at the 12th International Symposium on Regulatory Peptides, Copenhagen, Denmark, September 1996; J. C. Watson et al., “SST-2 Gene Expression Appears During Human Angiogenesis,” Regulatory Peptides, vol. 64, p. 206 (Abstract) (1996); and J. C. Watson et al., “Breast Cancer Increases Initiation of Angiogenesis Without Accelerating Neovessel Growth Rate,” Surgery, vol. 122, pp. 508-14 (1997). Human placental veins were cut into discs of 2 mm diameter and were incorporated into a 0.3% fibrinogen gel. This gel was then overlaid with tissue culture media containing 10-20% fetal calf serum (FCS). Under normal conditions, endothelial cords will begin to sprout from the transected cut edge of the vein discs within six days.
These vein discs were placed into wells of three separate culture plates. One culture plate, the control sample, was allowed to grow without treatment. […] The discs were then incubated for fourteen days. After 14 days the culture plates were examined for the number of wells in which angiogenic growth was initiated. […] The molar concentration of the radiolabeled somatostatin analog added to the culture plates was in the femtomolar range (10^−15). This concentration is 1000× or more below the concentration of unlabeled somatostatin analog that is known to inhibit angiogenesis; a concentration of 10^−5 M to 10^−8 M. Thus any effect was due to the radiolabel and not just the presence of the somatostatin analog. […] Only the radiolabel connected to the somatostatin analog would be incorporated into the DNA. Thus the greater decrease is due to this incorporation and the Auger emission on DNA.
Using a digital image analyzer, the mean area of the sprouting tissue surrounding the discs was measured.
To measure the growth rate of angiogenic vascular tissue, every two days during the 14-day incubation period, the length of sprouts were measured. […]

[6] = tested on: MCF-7 breast cancer cell line; assay: Specific binding of radiolabeled estradiol with time, MCF-7; format: cell-based, human
Procedure: (§1) To follow the time of uptake of a steroid hormone, three cell lines were incubated with a radiolabeled estrogen using procedures similar to those of Example 2. Three breast cancer cell lines were used; MCF-7 (ATCC No. HTB-22), T47D (ATCC No. HTB-133), and ZR-75-1 (ATCC No. CRL-1500). The estrogen used was 17-β-estradiol, the major secreted estrogen in humans. The radiolabeled compound was ^125I-17-β-estradiol, which was either purchased from New England Nuclear or synthesized by the following procedure: A 10 ml Sephadex G-10 column was equilibrated for 1 hr with 0.1 M PBS. A solution was prepared of 12.5 μg estradiol conjugate (BL-43), 25 μl methanol, 50 μl 0.05 M phosphate buffer pH 7.5, 3 mCi Na^125I, and 25 μl of a mixture of 10 mg chloramine-T and 10 ml 0.05 M phosphate buffer. After mixing for 40 sec, 25 μl of sodium metabisulfite 20 mg/10 ml 0.05 M Phosphate buffer was added and mixed an additional 40 sec. The mixture was then added to the Sephadex column and eluted first with 0.1 M PBS. Finally, the radiolabeled estradiol was eluted with 0.1 M PBS and 1,4 Dioxane (70:30).
(§2) The standard binding procedure described in Example 2 was used except that radiolabeled estradiol was used as the ligand with 1000× excess non-radioactive estradiol as the competitor. Unlike peptides that initially must bind on the plasma membrane, steroids bind only to intracellular receptors. Thus no radioactivity on the membrane should be found.

[7] = tested on: T47D breast cancer cell line; assay: Specific binding of radiolabeled estradiol with time, T47D; format: cell-based, human; settings: T-47D
Procedure: as §1, §2

[8] = tested on: ZR-75-1 breast cancer cell line; assay: Specific binding of radiolabeled estradiol with time, ZR-75-1; format: cell-based, human
Procedure: as §1, §2

IMR-32 cells = assay: Nuclear translocation, Percoll density gradient fractionation; format: cell-based, human
Procedure: The cells were washed twice in media at 4° C. and resuspended in cold isotonic sucrose. The labeled cells were passed through a ballbearing homogenizer three times to disrupt cell membranes while leaving approximately 95% of the cell nuclei intact, according to the method of Balch et al., Arch. Biochem. Biophys., vol. 240, p. […] The cell homogenate was mixed with Percoll to give a final concentration of 0.292% Percoll and spun at 20,400 rpm in a Beckman 40.2 rotor for 45 min to generate a density gradient. Density marker beads (Pharmacia) were used to indicate density levels in the tube. The contents of the tube were fractionated in an ISCO Density Gradient Fractionator. The resulting tubes were assayed for content of radiolabeled somatostatin or analogs, DNA to indicate nuclei, protein, the plasma membrane marker 5′-nucleotidase, and the lysosome marker N-acetylglucosaminidase. The usual assumption was made that the radioactivity measured in fractions rich in a certain cell component was in fact associated with that component; e.g., the radioactivity measured in a fraction rich in plasma membrane was due to association of the radiolabeled compound with the plasma membrane.

C[C@@H](O)[C@@H]1NC(=O)[C@H](CCCCN)NC(=O)[C@@H](Cc2c[nH]c3ccccc23)NC(=O)[C@H](Cc2ccccc2)NC(=O)[C@@H](NC(=O)[C@@H](Cc2ccccc2)NC(=O)CN2CCN3CCN(CC(=O)O)CC(=O)[O][111In]([O]C(=O)C3)[O]C(=O)C2)CSSC[C@@H](C(=O)N[C@H](CO)[C@@H](C)O)NC1=O [^111In-pentetreotide, ^111In-DTPA-D-Phe^1-octreotide]
half-life of exponential decay of tumor radioactivity (approached physical half-life of the radioligand) ([1]; female, human): ~67.3 h
persistence of tumor foci on gamma camera scintigraphy [1]: still identifiable by gamma scintigraphy thirteen days after completion of the last infusion dose
Treatment-related toxicity: Grade I Hb (NCI scale), number of cases [2]: 2
Treatment-related toxicity: Grade I WBC (NCI scale), number of cases [2]: 1
Treatment-related toxicity: Grade II WBC (NCI scale), number of cases [2]: 1
Treatment-related toxicity: Grade III platelet (NCI scale), number of cases [2]: 2

CC(C)[C@@H]1NC(=O)[C@H](CCCCN)NC(=O)[C@@H](Cc2c[nH]c3ccccc23)NC(=O)[C@H](Cc2ccc(O)cc2)NC(=O)[C@@H](NC(=O)[C@H](N)Cc2ccc3ccccc3c2)CSSC[C@@H](C(=O)N[C@H](C(N)=O)[C@@H](C)O)NC1=O [lanreotide]
biologic half-life [3]: 60-90 min

D-Lys-D-Tyr-D-Lys-D-Tyr-D-Lys-C[Cys-Phe-D-Trp-Lys-Thr-Cys]-Thr-NH2 [^125I-JIC-2D]
binding and internalization [4]: the vast majority of the radioligand was internalized into the cell

^111In-Cl
growth rate (mm/day) of angiogenic vascular tissue ([5]; 14-day incubation, FIG. 20): substantially below that of the control
% initiation of angiogenic growth ([5]; 14 days, FIG. 18): substantially less than the control plate
vessel area (mm^2) of sprouting tissue ([5]; 14 days, FIG. 19): substantially less

^125I-17-β-estradiol
Specific Binding ([6]; MCF-7, 1 Hr): 1605 CPM
Specific Binding ([6]; MCF-7, 4 Hr): 2253 CPM
Specific Binding ([6]; MCF-7, 24 Hr): 4109 CPM
Specific Binding ([6]; MCF-7, 48 Hr): 731 CPM
Specific Binding ([7]; 1 Hr): 401 CPM
Specific Binding ([7]; 4 Hr): 506 CPM
Specific Binding ([7]; 24 Hr): 532 CPM
Specific Binding ([7]; 48 Hr): 455 CPM
Specific Binding ([8]; ZR-75-1, 1 Hr): 4102 CPM
Specific Binding ([8]; ZR-75-1, 4 Hr): 4865 CPM
Specific Binding ([8]; ZR-75-1, 24 Hr): 3370 CPM
Specific Binding ([8]; ZR-75-1, 48 Hr): 3057 CPM

^125I-somatostatin: radiolabeled native somatostatin, very short-lived peptide (AGCKNFFWKTFTSC; ends and bridges not checked; also: 125I label, site not given here; UniProt P61278 103-116, looked up)
cellular distribution of radioactivity (membrane vs nuclear fractions) (IMR-32 cells; 1 hr incubation): both membrane binding and small amounts of nuclear binding
cellular distribution of radioactivity (membrane vs nuclear fractions) (IMR-32 cells; 4 hr incubation): plasma membrane binding appeared to have peaked and the nuclear fraction was dissipating
cellular distribution of radioactivity (membrane vs nuclear fractions) (IMR-32 cells; 24 hr incubation): essentially no plasma membrane or nuclear binding was seen
